Experimental data taken from ChEMBL document CHEMBL1143189.

Target: T1, Type-1 angiotensin II receptor A (Rattus norvegicus) (UniProt P25095)
T1 sequence (whole entry): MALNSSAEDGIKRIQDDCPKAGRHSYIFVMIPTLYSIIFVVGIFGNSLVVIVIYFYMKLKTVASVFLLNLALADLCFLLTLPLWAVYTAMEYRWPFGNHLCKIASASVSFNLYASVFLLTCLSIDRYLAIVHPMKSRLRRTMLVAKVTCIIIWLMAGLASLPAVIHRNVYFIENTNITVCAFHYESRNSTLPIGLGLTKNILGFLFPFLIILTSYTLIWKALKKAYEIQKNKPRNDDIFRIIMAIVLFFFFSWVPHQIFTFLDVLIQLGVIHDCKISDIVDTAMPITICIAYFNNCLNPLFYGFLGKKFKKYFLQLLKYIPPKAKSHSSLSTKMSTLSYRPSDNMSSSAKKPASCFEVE
Experiment: Antagonist activity at rat AT1 receptor expressed in CHO cells assessed as angiotensin 2-evoked increase in intracellular calcium level
Format: functional, cell-based

pKb: 8.8
SMILES: CCCCc1ncc(/C=C(\Cc2cccs2)C(=O)O)n1Cc1ccc(C(=O)O)cc1
